Data: PubChem BioAssay (NCI)
Several values for one entry are separate records, joined by “and”; a condition that tells them apart may be missing. Identical values can stand only once.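 Five compound concentrations were applied to cells in 96-well plates for 48 hours; endpoints were derived by simple linear interpolation of the resulting dose-response curve. At the GI50, growth is halved. Definition used: TGI = concentration required for complete inhibition of growth.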

Legend:
Assay in all cases: inhibition of tumour cell growth, NCI panel, 48 h
NCI-H23 lung = tested on: NCI-H23 lung
SNB-19 CNS = tested on: SNB-19 CNS
SK-OV-3 ovarian = tested on: SK-OV-3 ovarian
HCT-116 colon = tested on: HCT-116 colon
SNB-75 CNS = tested on: SNB-75 CNS
DU-145 prostate = tested on: DU-145 prostate
OVCAR-3 ovarian = tested on: OVCAR-3 ovarian
U251 CNS = tested on: U251 CNS
ACHN renal = tested on: ACHN renal
UO-31 renal = tested on: UO-31 renal

## CCOc1ccc(/C=C2\N=C(c3ccc([N+](=O)[O-])cc3)OC2=O)cc1
NCI-H23 lung
  TGI: > 100 µM
SNB-19 CNS
  TGI: > 100 µM
SK-OV-3 ovarian
  TGI: > 100 µM
HCT-116 colon
  TGI: > 100 µM
SNB-75 CNS
  TGI: > 100 µM
DU-145 prostate
  TGI: > 100 µM
OVCAR-3 ovarian
  TGI: > 100 µM
U251 CNS
  TGI: > 100 µM
ACHN renal
  TGI: > 100 µM

## COc1ccc(-c2nnc3n(C)c(=O)c4ccccc4n23)cc1N
NCI-H23 lung
  GI50: 5.28 µM
  TGI: > 100 µM
SNB-19 CNS
  GI50: 3.65 µM
  TGI: > 100 µM
SK-OV-3 ovarian
  GI50: 3.25 µM
  TGI: > 100 µM
HCT-116 colon
  GI50: 0.0571 µM
  TGI: > 100 µM
DU-145 prostate
  GI50: 3.09 µM
  TGI: > 100 µM
OVCAR-3 ovarian
  GI50: 0.0474 µM
  TGI: > 100 µM
U251 CNS
  GI50: 1.63 µM
  TGI: > 100 µM
ACHN renal
  GI50: 17.3 µM
  TGI: > 100 µM
UO-31 renal
  GI50: 4.96 µM
  TGI: > 100 µM

## COC(=O)c1c2c(c(C)[n+]([O-])c1C)C(=O)C=C(NCc1ccc(F)cc1)C2=O
NCI-H23 lung
  GI50: 0.733 µM
  TGI: 3.41 µM
SNB-19 CNS
  GI50: 1.38 µM
  TGI: 2.83 µM
SK-OV-3 ovarian
  GI50: 2.53 µM
  TGI: 6.45 µM
HCT-116 colon
  GI50: 0.319 µM
  TGI: 1.18 µM
SNB-75 CNS
  GI50: 1.65 µM
  TGI: 3.03 µM
DU-145 prostate
  GI50: 1.15 µM
  TGI: 2.4 µM
OVCAR-3 ovarian
  GI50: 0.245 µM
  TGI: 0.744 µM
U251 CNS
  GI50: 0.999 µM
  TGI: 2.62 µM
UO-31 renal
  GI50: 1.24 µM
  TGI: 2.53 µM

## CC1(C)COC(c2cccc3c2C(=O)c2cccc(Cl)c2-3)=N1
NCI-H23 lung
  TGI: > 100 µM
SNB-19 CNS
  TGI: > 100 µM
SK-OV-3 ovarian
  TGI: > 100 µM
SNB-75 CNS
  TGI: > 100 µM
OVCAR-3 ovarian
  TGI: > 100 µM
U251 CNS
  TGI: > 100 µM
ACHN renal
  TGI: > 100 µM
UO-31 renal
  TGI: > 100 µM

## NC1CCN(Cc2ccccc2)CC1
NCI-H23 lung
  GI50: > 100 µM
  TGI: > 100 µM
SNB-19 CNS
  GI50: > 100 µM
  TGI: > 100 µM
SK-OV-3 ovarian
  GI50: > 100 µM
  TGI: > 100 µM
HCT-116 colon
  GI50: > 100 µM
  TGI: > 100 µM
SNB-75 CNS
  GI50: > 100 µM
  TGI: > 100 µM
OVCAR-3 ovarian
  GI50: > 100 µM
  TGI: > 100 µM
U251 CNS
  GI50: > 100 µM
  TGI: > 100 µM
ACHN renal
  GI50: > 100 µM
  TGI: > 100 µM
UO-31 renal
  GI50: > 100 µM
  TGI: > 100 µM

## O=C(Nc1cccc(C(F)(F)F)c1)c1ccc(NC2=C(Cl)C(=O)N(Cc3ccc(Cl)cc3Cl)C2=O)cc1
SNB-19 CNS
  GI50: 22.8 µM
  TGI: > 100 µM
SK-OV-3 ovarian
  GI50: 60.4 µM
  TGI: > 100 µM
HCT-116 colon
  GI50: 5.99 µM
  TGI: 18.6 µM
SNB-75 CNS
  GI50: 14.6 µM
  TGI: 33.3 µM
DU-145 prostate
  GI50: 11.8 µM
  TGI: 30.2 µM
OVCAR-3 ovarian
  GI50: 15.3 µM
  TGI: 30.9 µM
U251 CNS
  GI50: 5.82 µM
  TGI: 19 µM
ACHN renal
  GI50: 11.9 µM
  TGI: 46.1 µM

## CC12CCC(=O)C[C@H]1CCC(OC=O)C2Br (stereo partly drawn)
NCI-H23 lung
  TGI: > 100 µM
SNB-19 CNS
  TGI: > 100 µM
SK-OV-3 ovarian
  TGI: > 100 µM
HCT-116 colon
  TGI: > 100 µM
SNB-75 CNS
  TGI: > 100 µM
OVCAR-3 ovarian
  TGI: > 100 µM
U251 CNS
  TGI: > 100 µM
ACHN renal
  TGI: > 100 µM
UO-31 renal
  TGI: > 100 µM

## COC(=O)C1CCCC2(C1)OCCO2 (stereo not drawn)
NCI-H23 lung
  TGI: > 100 µM
SNB-19 CNS
  TGI: > 100 µM
SK-OV-3 ovarian
  TGI: > 100 µM
HCT-116 colon
  TGI: > 100 µM
SNB-75 CNS
  TGI: > 100 µM
OVCAR-3 ovarian
  TGI: > 100 µM
U251 CNS
  TGI: > 100 µM
ACHN renal
  TGI: > 100 µM
UO-31 renal
  TGI: > 100 µM

## C/C(CC(=O)Nc1ccc(C)c(C)c1)=N\N(c1ccccc1)c1ccccc1
NCI-H23 lung
  TGI: > 100 µM
SNB-19 CNS
  TGI: > 100 µM
SK-OV-3 ovarian
  TGI: > 100 µM
HCT-116 colon
  TGI: > 100 µM
SNB-75 CNS
  TGI: > 100 µM
OVCAR-3 ovarian
  TGI: > 100 µM
U251 CNS
  TGI: 30.5 µM
ACHN renal
  TGI: > 100 µM
UO-31 renal
  TGI: > 100 µM

## CN1C(=O)c2ccccc2NC(=O)C12O[C@@H]2c1ccccc1 (stereo partly drawn)
NCI-H23 lung
  TGI: > 100 µM
HCT-116 colon
  TGI: > 100 µM
SNB-75 CNS
  TGI: > 100 µM
DU-145 prostate
  TGI: > 100 µM
OVCAR-3 ovarian
  TGI: > 100 µM
U251 CNS
  TGI: > 100 µM
ACHN renal
  TGI: > 100 µM
UO-31 renal
  TGI: > 100 µM

## CC(=O)Nc1ccc(-c2csc(Nc3cccc(-c4csc(C)n4)c3)n2)cc1
NCI-H23 lung
  GI50: 3.31 µM
  TGI: > 27.7 µM
SNB-19 CNS
  GI50: 1.6 µM
  TGI: > 50 µM
SK-OV-3 ovarian
  GI50: 2.38 µM
  TGI: 19.1 µM
HCT-116 colon
  GI50: 0.697 µM
  TGI: > 26.7 µM
DU-145 prostate
  GI50: 3.85 µM
  TGI: 22.7 µM
OVCAR-3 ovarian
  GI50: 0.238 µM
U251 CNS
  GI50: 1.13 µM
  TGI: 9.69 µM
ACHN renal
  GI50: 1.87 µM
  TGI: 22.6 µM
UO-31 renal
  GI50: 6.73 µM
  TGI: 22.8 µM

## COC(=O)/C(C#N)=C1\N=NNN1c1ccc(OC)cc1
NCI-H23 lung
  TGI: > 100 µM
SNB-19 CNS
  TGI: > 100 µM
SK-OV-3 ovarian
  TGI: > 100 µM
HCT-116 colon
  TGI: > 100 µM
SNB-75 CNS
  TGI: > 100 µM
OVCAR-3 ovarian
  TGI: > 100 µM
U251 CNS
  TGI: > 100 µM
ACHN renal
  TGI: > 100 µM
UO-31 renal
  TGI: > 100 µM

## CCOC(=O)Nc1cc2c(c(N)n1)N=C(c1ccccc1)CO2
NCI-H23 lung
  GI50: 0.569 µM
  TGI: 21.4 µM
SNB-19 CNS
  GI50: 0.414 µM
  TGI: 25 µM
SK-OV-3 ovarian
  GI50: 0.289 µM
  TGI: 9.4 µM
HCT-116 colon
  GI50: 0.084 µM
  TGI: 13.9 µM
DU-145 prostate
  GI50: 0.194 µM
  TGI: 1.44 µM
OVCAR-3 ovarian
  GI50: 0.0345 µM
  TGI: 0.109 µM
U251 CNS
  GI50: 0.183 µM
  TGI: 14.3 µM
ACHN renal
  GI50: 0.986 µM
  TGI: 31.7 µM
UO-31 renal
  GI50: 0.459 µM
  TGI: 6.53 µM

## CCOC(=O)N[C@H]1CCc2cc(OC)c(OC)c(OC)c2-c2ccc(SC)c(=O)cc21
SNB-19 CNS
  GI50: < 0.01 µM
  TGI: 91.7 µM and > 100 µM
SK-OV-3 ovarian
  GI50: < 0.01 µM
  TGI: 26.8 µM and > 100 µM
HCT-116 colon
  TGI: 6.09 µM and > 39 µM
SNB-75 CNS
  GI50: < 0.01 µM
U251 CNS
  TGI: 61.3 µM and > 100 µM
ACHN renal
  TGI: > 100 µM
UO-31 renal
  GI50: 0.254 µM
  TGI: > 100 µM

## CCOC(=O)c1nc2c(OC)nn(O)cc-2c1[N+](=O)[O-]
SNB-19 CNS
  TGI: 62.8 µM
SK-OV-3 ovarian
  TGI: > 100 µM
HCT-116 colon
  TGI: 38 µM
OVCAR-3 ovarian
  TGI: 35.2 µM
U251 CNS
  TGI: 30.8 µM
ACHN renal
  TGI: 31 µM
UO-31 renal
  TGI: 42.4 µM

## Cc1nc(Nc2ccc(Cl)cc2)sc1C(=O)NNC(=S)NN
NCI-H23 lung
  TGI: 33.4 µM
SNB-19 CNS
  TGI: 34.8 µM
SK-OV-3 ovarian
  TGI: 54 µM
HCT-116 colon
  TGI: 30.8 µM
SNB-75 CNS
  TGI: 64.3 µM
OVCAR-3 ovarian
  TGI: 39.5 µM
U251 CNS
  TGI: 32.3 µM
ACHN renal
  TGI: 45.7 µM
UO-31 renal
  TGI: 30.2 µM

## O=C(Nc1cccc(Cl)c1)C(=O)C(C(=O)c1ccc2ccccc2c1)C1OC(=O)c2ccccc21 (stereo not drawn)
NCI-H23 lung
  TGI: 24.8 µM
SNB-19 CNS
  TGI: 28 µM
SK-OV-3 ovarian
  TGI: > 100 µM
HCT-116 colon
  TGI: 26.7 µM
OVCAR-3 ovarian
  TGI: 56.6 µM
U251 CNS
  TGI: 21.2 µM
ACHN renal
  TGI: 82.7 µM
UO-31 renal
  TGI: 29.9 µM

## Cc1ccc(C)c(NC(=O)c2cccc([N+](=O)[O-])c2O)c1
NCI-H23 lung
  TGI: 49 µM
SNB-19 CNS
  TGI: > 100 µM
SK-OV-3 ovarian
  TGI: > 100 µM
HCT-116 colon
  TGI: 81 µM
SNB-75 CNS
  TGI: 63.8 µM
OVCAR-3 ovarian
  TGI: > 100 µM
U251 CNS
  TGI: > 100 µM
ACHN renal
  TGI: 57.6 µM
UO-31 renal
  TGI: 51.9 µM

## Cc1cc2c(=O)c3ccccc3[nH]c2c(C(N)=O)c1C
NCI-H23 lung
  TGI: > 100 µM
SNB-19 CNS
  TGI: > 100 µM
SK-OV-3 ovarian
  TGI: > 100 µM
HCT-116 colon
  TGI: > 100 µM
SNB-75 CNS
  TGI: > 100 µM
OVCAR-3 ovarian
  TGI: > 100 µM
U251 CNS
  TGI: > 100 µM
ACHN renal
  TGI: > 100 µM
UO-31 renal
  TGI: > 100 µM
